According to patent US11753407B2, “Compounds for treating spinal muscular atrophy” (PTC Therapeutics, Inc., priority 2012, dated 2023):

How the values were obtained:
[1] = system: SMN2 minigene mRNA (SMN2-A minigene) in HEK293H cells; experiment: SMN2 minigene mRNA splicing RT-qPCR assay in cultured cells; type: cell-based, human; details: Homo sapiens, HEK293-H; concentration increasing full length SMN2 mRNA 1.5-fold relative to vehicle-treated cells; HEK293H cells with SMN2-A minigene, 24 hours, 7-point concentration data; read-out: EC1.5x for production of full length SMN2 mRNA
Method in brief: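 Stable SMN2-A minigene HEK293H; cpd 7-pt 3.16-fold series, 200× in DMSO, 24 h, 37 °C, n=2. Lysates → multiplex RT-qPCR (minigene FL + GAPDH), efficiency-corrected ΔΔCt vs vehicle. EC1.5× = 1.5-fold FL mRNA gain.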

[2] = system: Smn protein in SMA patient fibroblast cells (GM03813); experiment: Smn protein assay in cultured cells (SMN HTRF); type: cell-based, human; details: SMA patient fibroblast cells, 48 hours; for EC1.5x for Smn protein expression: 7-point concentration curve, SMN HTRF, concentration producing 1.5 times Smn protein vs DMSO vehicle control; for maximum fold (Fold) increase of Smn protein: 7-point concentration data, fold relative to vehicle control
Method in brief: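 Fibroblasts, SMA patient; 5,000 cells/well; 7-pt curve, 3.16-fold serial dilution; 48 h, 37 °C, 5% CO2; RIPA lysis 1 h RT; anti-SMN d2 + kryptate overnight RT; HTRF 665/620 nm; fold vs DMSO; EC1.5×, max fold.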

| Compound | EC (1.5-fold increase) [1] [µM] | EC1.5x for Smn protein expression [2] | maximum fold (Fold) increase of Smn protein [2] |
| --- | --- | --- | --- |
| Cc1cn2nc(-c3cc(=O)n4cc(N5CCNC(C)(C)C5)cc(C)c4n3)cc2c(C)n1 [Compound 544, 7-(3,3-dimethylpiperazin-1-yl)-2-(4,6-dimethylpyrazolo[1,5-a]pyrazin-2-yl)-9-methyl-4H-pyrido[1,2-a]pyrimidin-4-one] | < 0.1 | *** (an EC1.5× between >0.3 μM and ≤1 μM is indicated by three stars (***)) | **** (a fold increase between >1.5 and ≤1.65 is indicated by four stars (****)) |
| Cc1cn2cc(-c3cc(=O)n4cc(C5CCNCC5)ncc4n3)ccc2n1 [Compound 585, 2-(2-methylimidazo[1,2-a]pyridin-6-yl)-7-(piperidin-4-yl)-4H-pyrazino[1,2-a]pyrimidin-4-one] | < 0.1 | **** (an EC1.5x≤0.3 μM is indicated by four stars (****)) | ***** (a fold increase >1.65 is indicated by five stars (*****)) |
| Cc1cn2cc(-c3cc(=O)n4cc(C5CCNCC5)ncc4n3)cc(Cl)c2n1 [Compound 587, 2-(8-chloro-2-methylimidazo[1,2-a]pyridin-6-yl)-7-(piperidin-4-yl)-4H-pyrazino[1,2-a]pyrimidin-4-one] | < 0.1 | **** (an EC1.5x≤0.3 μM is indicated by four stars (****)) | **** (a fold increase between >1.5 and ≤1.65 is indicated by four stars (****)) |
| Cc1cn2cc(-c3cc(=O)n4cc(C5CCNCC5)ncc4n3)cc(C)c2n1 [Compound 588, 2-(2,8-dimethylimidazo[1,2-a]pyridin-6-yl)-7-(piperidin-4-yl)-4H-pyrazino[1,2-a]pyrimidin-4-one] | < 0.1 | **** (an EC1.5x≤0.3 μM is indicated by four stars (****)) | ***** (a fold increase >1.65 is indicated by five stars (*****)) |
| CN1CCN(c2cn3c(=O)cc(-c4ccc5nn(C)cc5c4)nc3cn2)CC1 [Compound 589, 2-(2-methyl-2H-indazol-5-yl)-7-(4-methylpiperazin-1-yl)-4H-pyrazino[1,2-a]pyrimidin-4-one] | 0.1 to 0.3 | *** (an EC1.5× between >0.3 μM and ≤1 μM is indicated by three stars (***)) | **** (a fold increase between >1.5 and ≤1.65 is indicated by four stars (****)) |
| CC(C)N1CCC(c2ccc3nc(-c4ccc5nn(C)cc5c4)cc(=O)n3c2)CC1 [Compound 608, 2-(2-methyl-2H-indazol-5-yl)-7-[1-(propan-2-yl)piperidin-4-yl]-4H-pyrido[1,2-a]pyrimidin-4-one] | 0.1 to 0.3 | ** (an EC1.5× between >1 μM and ≤3 μM is indicated by two stars (**)) | **** (a fold increase between >1.5 and ≤1.65 is indicated by four stars (****)) |
| Cc1cn2cc(-c3cc(=O)n4cc(C5CCN(CCO)CC5)ccc4n3)cc(C)c2n1 [Compound 617, 2-(2,8-dimethylimidazo[1,2-a]pyridin-6-yl)-7-[1-(2-hydroxyethyl)piperidin-4-yl]-4H-pyrido[1,2-a]pyrimidin-4-one] | < 0.1 | **** (an EC1.5x≤0.3 μM is indicated by four stars (****)) | ***** (a fold increase >1.65 is indicated by five stars (*****)) |
| CCc1cc(-c2cc(=O)n3cc(N4CCN(C5CCC5)[C@@H](C)C4)ccc3n2)cn2cc(C)nc12 [Compound 652, 7-[(3S)-4-cyclobutyl-3-methylpiperazin-1-yl]-2-(8-ethyl-2-methylimidazo[1,2-a]pyridin-6-yl)-4H-pyrido[1,2-a]pyrimidin-4-one] | < 0.1 | **** (an EC1.5x≤0.3 μM is indicated by four stars (****)) | ***** (a fold increase >1.65 is indicated by five stars (*****)) |
| CCc1nc(C)cn2nc(-c3cc(=O)n4cc(C5CCNCC5)ncc4n3)cc12 [Compound 653, 2-(4-ethyl-6-methylpyrazolo[1,5-a]pyrazin-2-yl)-7-(piperidin-4-yl)-4H-pyrazino[1,2-a]pyrimidin-4-one] | < 0.1 | **** (an EC1.5x≤0.3 μM is indicated by four stars (****)) | ***** (a fold increase >1.65 is indicated by five stars (*****)) |
| Cc1cn2nc(-c3cc(=O)n4cc(N5CCN(CCOCCO)[C@H](C)C5)cc(C)c4n3)cc2c(C)n1 [Compound 670, 2-(4,6-dimethylpyrazolo[1,5-a]pyrazin-2-yl)-7-{(3R)-4-[2-(2-hydroxyethoxy)ethyl]-3-methylpiperazin-1-yl}-9-methyl-4H-pyrido[1,2-a]pyrimidin-4-one] | < 0.1 | **** (an EC1.5x≤0.3 μM is indicated by four stars (****)) | ***** (a fold increase >1.65 is indicated by five stars (*****)) |
| Cc1cn2nc(-c3cc(=O)n4cc(C5CCN(C)CC5)cc(C)c4n3)cc2c(C)n1 [Compound 672, 2-(4,6-dimethylpyrazolo[1,5-a]pyrazin-2-yl)-9-methyl-7-(1-methylpiperidin-4-yl)-4H-pyrido[1,2-a]pyrimidin-4-one] | < 0.1 | **** (an EC1.5x≤0.3 μM is indicated by four stars (****)) | ***** (a fold increase >1.65 is indicated by five stars (*****)) |
| CCc1cc(-c2cc(=O)n3cc(N4C[C@@H](C)N[C@@H](C)C4)ccc3n2)cn2cc(C)nc12 [Compound 675, 7-[(3R,5S)-3,5-dimethylpiperazin-1-yl]-2-(8-ethyl-2-methylimidazo[1,2-a]pyridin-6-yl)-4H-pyrido[1,2-a]pyrimidin-4-one] | < 0.1 | **** (an EC1.5x≤0.3 μM is indicated by four stars (****)) | ***** (a fold increase >1.65 is indicated by five stars (*****)) |
| CCc1cc(-c2cc(=O)n3cc(N4CCCN(C)CC4)ccc3n2)cn2cc(C)nc12 [Compound 676, 2-(8-ethyl-2-methylimidazo[1,2-a]pyridin-6-yl)-7-(4-methyl-1,4-diazepan-1-yl)-4H-pyrido[1,2-a]pyrimidin-4-one] | < 0.1 | *** (an EC1.5× between >0.3 μM and ≤1 μM is indicated by three stars (***)) | ***** (a fold increase >1.65 is indicated by five stars (*****)) |
| CCN1CCC(c2cc(C)c3nc(-c4cc5c(C)nc(C)cn5n4)cc(=O)n3c2)CC1 [Compound 702, 2-(4,6-dimethylpyrazolo[1,5-a]pyrazin-2-yl)-7-(1-ethylpiperidin-4-yl)-9-methyl-4H-pyrido[1,2-a]pyrimidin-4-one] | < 0.1 | **** (an EC1.5x≤0.3 μM is indicated by four stars (****)) | ***** (a fold increase >1.65 is indicated by five stars (*****)) |
| Cc1cn2cc(-c3cc(=O)n4cc(N5CCN[C@H](C)C5)ccc4n3)cc2c(C)n1 [Compound 713, 2-(1,3-dimethylpyrrolo[1,2-a]pyrazin-7-yl)-7-[(3R)-3-methylpiperazin-1-yl]-4H-pyrido[1,2-a]pyrimidin-4-one] | < 0.1 | **** (an EC1.5x≤0.3 μM is indicated by four stars (****)) | ***** (a fold increase >1.65 is indicated by five stars (*****)) |
| Cc1cn2nc(-c3cc(=O)n4cc(CCCN)ccc4n3)cc2c(C)n1 [Compound 742, 7-(3-aminopropyl)-2-(4,6-dimethylpyrazolo[1,5-a]pyrazin-2-yl)-4H-pyrido[1,2-a]pyrimidin-4-one] | 0.1 to 0.3 | *** (an EC1.5× between >0.3 μM and ≤1 μM is indicated by three stars (***)) | ***** (a fold increase >1.65 is indicated by five stars (*****)) |
| Cc1cc(N2CCN[C@H](C)C2)cn2c(=O)cc(-c3ccc4nn(C)cc4c3)nc12 [Compound 755, 9-methyl-2-(2-methyl-2H-indazol-5-yl)-7-[(3R)-3-methylpiperazin-1-yl]-4H-pyrido[1,2-a]pyrimidin-4-one] | < 0.1 | **** (an EC1.5x≤0.3 μM is indicated by four stars (****)) | ***** (a fold increase >1.65 is indicated by five stars (*****)) |
| Cc1cc(N2CCN[C@@H](C)C2)cn2c(=O)cc(-c3ccc4nn(C)cc4c3)nc12 [Compound 756, 9-methyl-2-(2-methyl-2H-indazol-5-yl)-7-[(3S)-3-methylpiperazin-1-yl]-4H-pyrido[1,2-a]pyrimidin-4-one] | < 0.1 | **** (an EC1.5x≤0.3 μM is indicated by four stars (****)) | ***** (a fold increase >1.65 is indicated by five stars (*****)) |
| CCc1nc(C)cn2nc(-c3cc(=O)n4cc(C5=CCNCC5)cc(C)c4n3)cc12 [Compound 773, 2-(4-ethyl-6-methylpyrazolo[1,5-a]pyrazin-2-yl)-9-methyl-7-(1,2,3,6-tetrahydropyridin-4-yl)-4H-pyrido[1,2-a]pyrimidin-4-one] | < 0.1 | **** (an EC1.5x≤0.3 μM is indicated by four stars (****)) | ***** (a fold increase >1.65 is indicated by five stars (*****)) |
